Measured values from US10570122B2, “Compounds with anti-tumoral activity” (AB Science, priority 2015, dated 2020).
pIC50: −log10 of the molar value.

How the values were obtained:
[1] = tested on: DLD1; experiment: CellTiter-Blue cell-based survival/proliferation assay, DLD1; conditions: Homo sapiens, DLD-1; DLD_1 colorectal tumor cell line, 48 h
How it was run: (§1)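 Tenfold compound dilutions (0–10 μM) were added to 1·10^4 cells/well. Plates incubated 48 h at 37 °C. CellTiter-Blue reduction (4 h, 37 °C) was read as fluorescence at 590 nm, background-corrected with a cell-free blank.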

[2] = tested on: A4513; experiment: CellTiter-Blue cell-based survival/proliferation assay, A4513; conditions: Homo sapiens; A4513 Ewing cell line, 48 h
Description: (§2) Cell-Based Proliferation Screening of Compounds
(§3) CellTiter-Blue cell-based survival/proliferation assay (Promega G8080) was performed on tumor cell lines. A total of 1·10^4 cells/well/50 μl were seeded in a 96-wells plate. Treatment was initiated by addition of a 2× drug solution of 1/10 serial dilutions ranging from 0 to 10 μM. Cells were grown for 48 h at 37° C. and then incubated with 10 μl/well of Promega CellTiter-Bleue reagent for 4 h at 37° C. The amount of resorufin dye formed was quantified by its fluorescence emission at 590 nm using a scanning multiwell spectrophotometer (OPTIMA, BMG labtech, France). A blank well without cells was used as a background control for the spectrophotometer.

[3] = tested on: REC1; experiment: CellTiter-Blue cell-based survival/proliferation assay, REC1; conditions: Homo sapiens, Lymphoma cell line REC1, 48 h, read-out: Anti-tumoral activity (measured IC50) REC1
How it was run: as §1

[4] = tested on: PLCPRF5; experiment: CellTiter-Blue cell-based survival/proliferation assay, PLCPRF5; conditions: Homo sapiens, PLC-PRF-5; PLC_PRF5 liver tumor cell line, 48 h
How it was run: as §1

[5] = tested on: BXPC3; experiment: CellTiter-Blue cell-based survival/proliferation assay, BXPC3; conditions: Homo sapiens, BXPC-3; BXPC3 pancreas tumor cell line, 48 h
How it was run: as §1

[6] = tested on: HUT78; experiment: CellTiter-Blue cell-based survival/proliferation assay, HUT78; conditions: Homo sapiens, Lymphoma cell line HUT78, 48 h, read-out: Anti-tumoral activity (measured IC50) HUT78
How it was run: as §1

[7] = tested on: BT20; experiment: CellTiter-Blue cell-based survival/proliferation assay, BT20; conditions: Homo sapiens, BT-20; BT20 breast tumor cell line, 48 h
How it was run: as §1

[8] = tested on: H1299; experiment: CellTiter-Blue cell-based survival/proliferation assay, H1299; conditions: Homo sapiens, NCI-H1299; H1299 lung tumor cell line, 48 h
How it was run: as §1

[9] = tested on: HGC27; experiment: CellTiter-Blue cell-based survival/proliferation assay, HGC27; conditions: Homo sapiens, HGC-27; HGC27 stomach tumor cell line, 48 h
How it was run: as §1

[10] = tested on: U118; experiment: CellTiter-Blue cell-based survival/proliferation assay, U118; conditions: Homo sapiens; U118 glioblastoma cell line, 48 h
Description: as §2, §3

[11] = tested on: A549; experiment: CellTiter-Blue cell-based survival/proliferation assay, A549; conditions: Homo sapiens; A549 lung tumor cell line, 48 h
How it was run: as §1

[12] = tested on: TOV112D; experiment: CellTiter-Blue cell-based survival/proliferation assay, TOV112D; conditions: Homo sapiens; TOV112D ovary tumor cell line, 48 h
How it was run: as §1

[13] = tested on: MESSA; experiment: CellTiter-Blue cell-based survival/proliferation assay, MESSA; conditions: Homo sapiens, MES-SA; MESSA ovary tumor cell line, 48 h
How it was run: as §1

[14] = tested on: KARPAS299; experiment: CellTiter-Blue cell-based survival/proliferation assay, KARPAS299; conditions: Homo sapiens, KARPAS-299, Lymphoma cell line KARPAS299, 48 h, read-out: Anti-tumoral activity (measured IC50) KARPAS299
How it was run: as §1

[15] = tested on: PANC1; experiment: CellTiter-Blue cell-based survival/proliferation assay, PANC1; conditions: Homo sapiens, PANC-1; PANC_1 pancreas tumor cell line, 48 h
How it was run: as §1

[16] = tested on: CALU6; experiment: CellTiter-Blue cell-based survival/proliferation assay, CALU6; conditions: Homo sapiens, Calu-6; CALU6 lung tumor cell line, 48 h
How it was run: as §1

[17] = tested on: DU145; experiment: CellTiter-Blue cell-based survival/proliferation assay, DU145; conditions: Homo sapiens, DU-145; DU145 prostate tumor cell line, 48 h
How it was run: as §1

[18] = tested on: A375; experiment: CellTiter-Blue cell-based survival/proliferation assay, A375; conditions: Homo sapiens, A-375; A375 melanoma cell line, 48 h
Description: as §2, §3

[19] = tested on: ACHN; experiment: CellTiter-Blue cell-based survival/proliferation assay, ACHN; conditions: Homo sapiens; ACHN kidney tumor cell line, 48 h
How it was run: as §1

[20] = tested on: U87MG; experiment: CellTiter-Blue cell-based survival/proliferation assay, U87MG; conditions: Homo sapiens, U-87 MG; U87_MG glioblastoma cell line, 48 h
Description: as §2, §3

[21] = tested on: U2OS; experiment: CellTiter-Blue cell-based survival/proliferation assay, U2OS; conditions: Homo sapiens; U2OS osteosarcoma cell line, 48 h
Description: as §2, §3

[22] = tested on: HEPG2; experiment: CellTiter-Blue cell-based survival/proliferation assay, HEPG2; conditions: Homo sapiens; HEPG2 liver tumor cell line, 48 h
How it was run: as §1

[23] = tested on: HEP2; experiment: CellTiter-Blue cell-based survival/proliferation assay, HEP2; conditions: Homo sapiens, HEp-2; HEP2 head & neck tumor cell line, 48 h
How it was run: as §1

[24] = tested on: A498; experiment: CellTiter-Blue cell-based survival/proliferation assay, A498; conditions: Homo sapiens; A498 kidney tumor cell line, 48 h
How it was run: as §1

[25] = tested on: HL60; experiment: CellTiter-Blue cell-based survival/proliferation assay, HL60; conditions: Homo sapiens, HL-60, Leukemia cell line HL60, 48 h, read-out: Anti-tumoral activity (measured IC50) HL60
How it was run: as §1

[26] = tested on: MELWO; experiment: CellTiter-Blue cell-based survival/proliferation assay, MELWO; conditions: Homo sapiens; MEL_WO melanoma cell line, 48 h
Description: as §2, §3

[27] = tested on: PC3; experiment: CellTiter-Blue cell-based survival/proliferation assay, PC3; conditions: Homo sapiens, PC-3; PC3 prostate tumor cell line, 48 h
How it was run: as §1

[28] = tested on: CLS354; experiment: CellTiter-Blue cell-based survival/proliferation assay, CLS354; conditions: Homo sapiens, CLS-354; CLS354_4 head & neck tumor cell line, 48 h
How it was run: as §1

[29] = tested on: HCT116; experiment: CellTiter-Blue cell-based survival/proliferation assay, HCT116; conditions: Homo sapiens, HCT-116; HCT116 colorectal tumor cell line, 48 h
How it was run: as §1

[30] = tested on: OPM2; experiment: CellTiter-Blue cell-based survival/proliferation assay, OPM2; conditions: Homo sapiens, OPM-2, Myeloma cell line OPM2, 48 h, read-out: Anti-tumoral activity (measured IC50) OPM2
How it was run: as §1

[31] = tested on: SW579; experiment: CellTiter-Blue cell-based survival/proliferation assay, SW579; conditions: Homo sapiens; SW579 head & neck tumor cell line, 48 h
How it was run: as §1

[32] = tested on: MDAMB231; experiment: CellTiter-Blue cell-based survival/proliferation assay, MDAMB231; conditions: Homo sapiens, MDA-MB-231; MDAMB231 breast tumor cell line, 48 h
How it was run: as §1

[33] = tested on: AGS; experiment: CellTiter-Blue cell-based survival/proliferation assay, AGS; conditions: Homo sapiens; AGS stomach tumor cell line, 48 h
How it was run: as §1

Measured: pIC50

CCOCc1ccc(C)c(Nc2ncc(-c3ccc(-n4cccn4)cc3)s2)c1 [Example 004, (5-Ethoxymethyl-2-methyl-phenyl)-[5-(4-pyrazol-1-yl-phenyl)-thiazol-2-yl]-amine]
< 6.00: all assays above

Cc1ccc(C(=O)NCCN2CCOCC2)cc1Nc1ncc(-c2ccc(-n3cccn3)cc2)o1 [Example 005, 4-Methyl-N-(2-morpholin-4-yl-ethyl)-3-[5-(4-pyrazol-1-yl-phenyl)-oxazol-2-ylamino]-benzamide]
< 6.00: all assays above

CCOCc1ccc(C)c(Nc2ncc(-c3ccc(-n4cccn4)nc3)o2)c1 [Example 007, (5-Ethoxymethyl-2-methyl-phenyl)-[5-(6-pyrazol-1-yl-pyridin-3-yl)-oxazol-2-yl]-amine]
6.00 to 6.30: [1]
≥ 7.00: [3] | [6] | [12] | [14] | [18] | [28] | [33]
6.30 to 7.00: [2] | [9] | [19] | [23] | [25] | [27] | [30]
< 6.00: all other assays above

CCOCc1ccc(C)c(Nc2nc(-c3ccc(N4CCNC4=O)cc3)ns2)c1 [Example 010, 1-{4-[5-(5-Ethoxymethyl-(2-methyl-phenylamino))-[1,2,4]thiadiazol-3-yl]-phenyl}-imidazolidin-2-one]
6.30 to 7.00: [8]
≥ 7.00: [3] | [6] | [9] | [12] | [14] | [18] | [19] | [23] | [25] | [26] | [27] | [28] | [29] | [30] | [31]
6.00 to 6.30: [16]
< 6.00: all other assays above
